Results from BindingDB's records for doi:10.1016/j.bmcl.2019.04.009 (Wannan Medical College, 2019).

Molecular target: Epidermal growth factor receptor (Homo sapiens, UniProt P00533)
Test: Inhibition of EGFR L858R mutant (unknown origin) using polyE4Y1 as substrate measured after 60 mins

Sequence of Epidermal growth factor receptor (P00533 25-1210 L858R limits assumed): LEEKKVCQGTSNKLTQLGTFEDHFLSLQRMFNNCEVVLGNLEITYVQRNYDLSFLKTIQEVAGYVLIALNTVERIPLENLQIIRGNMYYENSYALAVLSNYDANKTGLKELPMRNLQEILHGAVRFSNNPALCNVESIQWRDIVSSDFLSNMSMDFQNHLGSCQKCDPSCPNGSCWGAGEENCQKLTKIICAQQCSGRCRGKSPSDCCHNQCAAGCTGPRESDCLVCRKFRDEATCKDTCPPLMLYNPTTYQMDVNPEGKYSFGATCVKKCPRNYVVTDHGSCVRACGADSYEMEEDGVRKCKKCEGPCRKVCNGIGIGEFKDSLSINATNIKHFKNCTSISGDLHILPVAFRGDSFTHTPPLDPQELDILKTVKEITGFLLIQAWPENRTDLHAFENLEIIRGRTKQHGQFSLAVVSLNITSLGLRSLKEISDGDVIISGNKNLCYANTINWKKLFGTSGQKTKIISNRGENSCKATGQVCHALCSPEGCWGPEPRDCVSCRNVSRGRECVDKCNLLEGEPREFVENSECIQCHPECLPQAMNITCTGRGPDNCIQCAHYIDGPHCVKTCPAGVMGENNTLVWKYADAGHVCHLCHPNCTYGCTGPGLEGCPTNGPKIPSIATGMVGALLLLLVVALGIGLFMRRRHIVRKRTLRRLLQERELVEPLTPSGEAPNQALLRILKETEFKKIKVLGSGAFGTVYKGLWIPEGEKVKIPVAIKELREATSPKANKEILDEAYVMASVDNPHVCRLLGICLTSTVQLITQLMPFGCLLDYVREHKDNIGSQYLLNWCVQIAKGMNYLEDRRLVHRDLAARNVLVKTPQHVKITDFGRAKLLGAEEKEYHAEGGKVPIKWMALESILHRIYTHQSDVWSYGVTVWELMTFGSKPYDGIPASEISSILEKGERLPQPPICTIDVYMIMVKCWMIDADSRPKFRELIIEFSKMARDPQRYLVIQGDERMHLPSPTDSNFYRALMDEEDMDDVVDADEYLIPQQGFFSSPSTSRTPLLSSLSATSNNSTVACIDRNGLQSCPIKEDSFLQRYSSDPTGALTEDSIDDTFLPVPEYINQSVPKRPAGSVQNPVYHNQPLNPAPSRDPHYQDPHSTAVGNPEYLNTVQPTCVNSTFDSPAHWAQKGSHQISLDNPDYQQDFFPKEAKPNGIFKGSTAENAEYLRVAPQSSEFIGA

IC50: 56 nM
Structure (SMILES): C[C@H]1[C@H](C)CC[C@]2(C(=O)O)CC[C@]3(COC(=O)/C=C/c4ccc(O)cc4)C(=CC[C@@H]4[C@@]5(C)CC[C@H](O)C(C)(C)[C@@H]5CC[C@]43C)[C@H]12 [27-trans-p-coumaroyloxyursolic acid]
